From US20230192686A1, “1H-PYRROLO[2,3-B]PYRIDINES AND PREPARATION AND USES THEREOF” (BioSplice Therapeutics, Inc., priority 2021, published 2023)

Target: recombinant DYRK1A kinase (Homo sapiens, UniProt Q13627)
Assay: DYRK1A kinase assay (Ser/Thr 18 peptide Z-lyte FRET)
Format: biochemical
Conditions: DYRK1A kinase activity; 15 μM ATP, 4 μM Ser/Thr peptide 18, one hour at room temperature
Method: Representative compounds were screened using the assay procedure for DYRK1A kinase activity as described below.
Each compound was dissolved in DMSO as a 10 mM stock and used to prepare compound source plates. Serial dilution (1:3, 11-point dose-response curves from 10 μM to 0.00016 μM) and compound transfer was performed using the ECHO 550 (Labcyte, Sunnyvale, Calif.) into 1536-well black-walled round bottom plates (Corning).
The DYRK1A kinase assay was run using the Ser/Thr 18 peptide Z-lyte assay kit according to manufacturer's instructions (Life Technologies—a Division of Thermo-Fisher). This is a non-radioactive assay using fluorescence resonance energy transfer (FRET) between coumarin and fluorescein to detect kinase activity which is represented as a ratio of coumarin emission/fluorescein emission.
Briefly, recombinant DYRK1A kinase, ATP and Ser/Thr peptide 18 were prepared in 1× Kinase buffer to final concentrations of 0.25 μg/mL, 15 μM, and 4 μM respectively. The mixture was allowed to incubate with the representative compounds for one hour at room temperature. All reactions were performed in duplicate. Unphosphorylated (“0% Control”) and phosphorylated (“100% control”) forms of Ser/Thr 18 served as control reactions. Additionally, an 11-point dose-response curve of Staurosporine (1 uM top) was run to serve as a positive compound control.
After incubation, Development Reagent A was diluted in Development Buffer then added to the reaction and allowed to further incubate for one hour at room temperature. The plate was read at Ex 400 Em 455 to detect the coumarin signal and Ex 400 Em 520 to measure the signal (EnVision Multilabel Plate Reader, PerkinElmer).
The Emission ratio (Em) was calculated as a ratio of the coumarin (C) emission signal (at 445 nm)/Fluorescein (F) emission signal (at 520 nm). The percent phosphorylation was then calculated using the following formula: [1−((Em ratio×F100%)−C100%)/((C0%−C100%)+(Em ratio×(F100%−F0%)))]. Dose-response curves were generated, and inhibitory concentration (IC50) values were calculated using non-linear regression curve fit in the Dotmatics' Studies Software (Bishops Stortford, UK).

EC50 | Compound
50 nM | c1cnc2[nH]cc(-c3ccnc4[nH]ccc34)c2c1 [Compound 2, 1H,1′H-3,4′-Bipyrrolo[2,3-b]pyridine]
6 nM | Cn1cc2cc(-c3c[nH]c4ncccc34)ccc2n1 [Compound 3, 2-Methyl-5-(1H-pyrrolo[2,3-b]pyridin-3-yl)-2H-indazole]
7 nM | c1cnc2sc(-c3c[nH]c4ncccc34)nc2c1 [Compound 4, 2-(1H-Pyrrolo[2,3-b]pyridin-3-yl)thiazolo[5,4-b]pyridine]
10 nM | c1cnc2[nH]cc(-c3cc4ccncc4s3)c2c1 [Compound 5, 2-(1H-Pyrrolo[2,3-b]pyridin-3-yl)thieno[2,3-c]pyridine]
201 nM | c1cnc2[nH]cc(-c3nc4cnccc4[nH]3)c2c1 [Compound 7, 2-(1H-Pyrrolo[2,3-b]pyridin-3-yl)-1H-imidazo[4,5-c]pyridine]
7 nM | O=C1NCCn2nc(-c3c[nH]c4ncccc34)cc21 [Compound 8, 2-(1H-Pyrrolo[2,3-b]pyridin-3-yl)-6,7-dihydropyrazolo[1,5-a]pyrazin-4(5H)-one]
19 nM | CC1(C)NC(=O)c2cc(-c3c[nH]c4ncccc34)nn21 [Compound 9, 6,6-Dimethyl-2-(1H-pyrrolo[2,3-b]pyridin-3-yl)-5,6-dihydro-4H-imidazo[1,5-b]pyrazol-4-one]
14 nM | O=C1NCCn2cc(-c3c[nH]c4ncccc34)cc21 [Compound 10, 7-(1H-Pyrrolo[2,3-b]pyridin-3-yl)-3,4-dihydropyrrolo[1,2-a]pyrazin-1(2H)-one]
12 nM | O=C1NCCc2sc(-c3c[nH]c4ncccc34)cc21 [Compound 11, 2-(1H-Pyrrolo[2,3-b]pyridin-3-yl)-6,7-dihydrothieno[3,2-c]pyridin-4(5H)-one]
3 nM | c1cnc2[nH]cc(-c3ccc4nccn4c3)c2c1 [Compound 12, 6-(1H-Pyrrolo[2,3-b]pyridin-3-yl)imidazo[1,2-a]pyridine]
21 nM | Cc1cn2cc(-c3c[nH]c4ncccc34)cc(F)c2n1 [Compound 13, 8-Fluoro-2-methyl-6-(1H-pyrrolo[2,3-b]pyridin-3-yl)imidazo[1,2-a]pyridine]
1 nM | CN1CCC(NC(=O)c2cnc3ccc(-c4c[nH]c5ncccc45)cn23)CC1 [Compound 14, N-(1-Methylpiperidin-4-yl)-6-(1H-pyrrolo[2,3-b]pyridin-3-yl)imidazo[1,2-a]pyridine-3-carboxamide]
17 nM | CN(C)Cc1cnc2ccc(-c3c[nH]c4ncccc34)cn12 [Compound 18, 1-(6-(1H-Pyrrolo[2,3-b]pyridin-3-yl)imidazo[1,2-a]pyridin-3-yl)-N,N-dimethylmethanamine]
10 nM | c1cnc2[nH]cc(-c3cn4ccnc4cn3)c2c1 [Compound 20, 6-(1H-Pyrrolo[2,3-b]pyridin-3-yl)imidazo[1,2-a]pyrazine]
16 nM | CN1CCN(C(=O)c2cnc3cnc(-c4c[nH]c5ncccc45)cn23)CC1 [Compound 21, (6-(1H-Pyrrolo[2,3-b]pyridin-3-yl)imidazo[1,2-a]pyrazin-3-yl)(4-methylpiperazin-1-yl)methanone]
2 nM | Cc1nc2c(F)cc(-c3c[nH]c4ncccc34)cc2n1C1CCNCC1 [Compound 23, 4-Fluoro-2-methyl-1-(piperidin-4-yl)-6-(1H-pyrrolo[2,3-b]pyridin-3-yl)-1H-benzo[d]imidazole]
1 nM | Cc1nc2c(F)cc(-c3c[nH]c4ncccc34)cc2n1C1CCN(C)CC1 [Compound 24, 4-Fluoro-2-methyl-1-(1-methylpiperidin-4-yl)-6-(1H-pyrrolo[2,3-b]pyridin-3-yl)-1H-benzo[d]imidazole]
2 nM | Cc1nc2ccc(-c3c[nH]c4ncccc34)nc2n1C(C)C [Compound 27, 3-Isopropyl-2-methyl-5-(1H-pyrrolo[2,3-b]pyridin-3-yl)-3H-imidazo [4,5-b]pyridine]
19 nM | c1cnc2[nH]cc(-c3ccc4nc5n(c4n3)CCC5)c2c1 [Compound 28, 2-(1H-Pyrrolo[2,3-b]pyridin-3-yl)-7,8-dihydro-6H-pyrrolo [2′,1′:2,3]imidazo[4,5-b]pyridine]

EC50 | Compound
10 nM | c1cnc2[nH]cc(-c3ccc4ncnn4c3)c2c1 [Compound 29, 6-(1H-Pyrrolo[2,3-b]pyridin-3-yl)-[1,2,4]triazolo[1,5-a]pyridine]
13 nM | c1cnc2[nH]cc(-c3ccn4ncnc4c3)c2c1 [Compound 30, 7-(1H-Pyrrolo[2,3-b]pyridin-3-yl)-[1,2,4]triazolo[1,5-a]pyridine]
4 nM | Cn1nnc2ccc(-c3c[nH]c4ncccc34)cc21 [Compound 31, 1-Methyl-6-(1H-pyrrolo[2,3-b]pyridin-3-yl)-1H-benzo[d][1,2,3]triazole]
151 nM | Cc1nnc2ccc(-c3c[nH]c4ncccc34)cn12 [Compound 32, 3-Methyl-6-(1H-pyrrolo[2,3-b]pyridin-3-yl)-[1,2,4]triazolo[4,3-a] pyridine]
2 nM | Cc1cnc2ccc(-c3c[nH]c4ncccc34)nn12 [Compound 34, 3-Methyl-6-(1H-pyrrolo[2,3-b]pyridin-3-yl)imidazo[1,2-b]pyridazine]
2 nM | OCc1cnc2ccc(-c3c[nH]c4ncccc34)nn12 [Compound 35, (6-(1H-Pyrrolo[2,3-b]pyridin-3-yl)imidazo[1,2-b]pyridazin-3-yl) methanol]
2 nM | c1cnc2[nH]cc(-c3ccn4nccc4c3)c2c1 [Compound 36, 3-(Pyrazolo[1,5-a]pyridin-5-yl)-1H-pyrrolo[2,3-b]pyridine]
2 nM | c1cncc(-c2cnn3ccc(-c4c[nH]c5ncccc45)cc23)c1 [Compound 38, 3-(3-(Pyridin-3-yl)pyrazolo[1,5-a]pyridin-5-yl)-1H-pyrrolo[2,3-b] pyridine]
2 nM | O=C(NCC1(F)CNC1)c1cnn2ccc(-c3c[nH]c4ncccc34)cc12 [Compound 41, N-((3-Fluoroazetidin-3-yl)methyl)-5-(1H-pyrrolo[2,3-b]pyridin-3-yl) pyrazolo[1,5-a]pyridine-3-carboxamide]
2 nM | CN1CC(F)(CNC(=O)c2cnn3ccc(-c4c[nH]c5ncccc45)cc23)C1 [Compound 42, N-((3-Fluoro-1-methylazetidin-3-yl)methyl)-5-(1H-pyrrolo[2,3-b]pyridin-3-yl)pyrazolo[1,5-a]pyridine-3-carboxamide]
1 nM | O=C(N[C@@H]1CCNC[C@H]1F)c1cnn2ccc(-c3c[nH]c4ncccc34)cc12 [Compound 43, N-((3R,4R)-3-Fluoropiperidin-4-yl)-5-(1H-pyrrolo[2,3-b]pyridin-3-yl) pyrazolo[1,5-a]pyridine-3-carboxamide]
1 nM | CN1CC[C@@H](NC(=O)c2cnn3ccc(-c4c[nH]c5ncccc45)cc23)[C@H](F)C1 [Compound 44, N-((3R,4R)-3-Fluoro-1-methylpiperidin-4-yl)-5-(1H-pyrrolo[2,3-b]pyridin-3-yl)pyrazolo[1,5-a]pyridine-3-carboxamide]
1 nM | CN1CCC(NC(=O)c2cnn3ccc(-c4c[nH]c5ncccc45)cc23)CC1 [Compound 45, N-(1-Methylpiperidin-4-yl)-5-(1H-pyrrolo[2,3-b]pyridin-3-yl) pyrazolo[1,5-a]pyridine-3-carboxamide]
5 nM | CN1CCC(N(C)C(=O)c2cnn3ccc(-c4c[nH]c5ncccc45)cc23)CC1 [Compound 46, N-Methyl-N-(1-methylpiperidin-4-yl)-5-(1H-pyrrolo[2,3-b]pyridin-3-yl)pyrazolo[1,5-a]pyridine-3-carboxamide]
2 nM | O=C(NC1CCN(C2CC2)CC1)c1cnn2ccc(-c3c[nH]c4ncccc34)cc12 [Compound 47, N-(1-Cyclopropylpiperidin-4-yl)-5-(1H-pyrrolo[2,3-b]pyridin-3-yl) pyrazolo[1,5-a]pyridine-3-carboxamide]
1 nM | O=C(NC1CCN(CC2CC2)CC1)c1cnn2ccc(-c3c[nH]c4ncccc34)cc12 [Compound 48, N-(1-(cyclopropylmethyl)piperidin-4-yl)-5-(1H-pyrrolo[2,3-b]pyridin-3-yl)pyrazolo[1,5-a]pyridine-3-carboxamide]
1 nM | CC(F)(F)CN1CCC(NC(=O)c2cnn3ccc(-c4c[nH]c5ncccc45)cc23)CC1 [Compound 49, N-(1-(2,2-Difluoropropyl)piperidin-4-yl)-5-(1H-pyrrolo[2,3-b]pyridin-3-yl)pyrazolo[1,5-a]pyridine-3-carboxamide]
1 nM | COCCN1CCC(NC(=O)c2cnn3ccc(-c4c[nH]c5ncccc45)cc23)CC1 [Compound 50, N-(1-(2-Methoxyethyl)piperidin-4-yl)-5-(1H-pyrrolo[2,3-b]pyridin-3-yl)pyrazolo[1,5-a]pyridine-3-carboxamide]
